Measurements: patent US11331369B2, “Endoparasitic depsipeptides” (Zoetis Services LLC, priority 2017, dated 2022)

How the values were obtained:
Format in all cases: cell-based
[1] = tested on: microfilariae of Dirofilaria immitis; test: Dirofilaria immitis, Microfilaria (DiMF) In vitro Assay; conditions: 72 h, read-out: DiMF Minimum Effective Dose (MED), approximately 72 hours incubation, microfilariae assessed for survival or paralysis
[2] = tested on: 4th stage larvae (L4) of Dirofilaria immitis; test: Dirofilaria immitis, L4 Stage (DiL4) In Vitro Assay; conditions: Dirofilaria immitis, 72 h, read-out: DiL4 Minimum Effective Dose (MED), approximately 72 hours incubation; L4 larvae assessed for survival or paralysis
[3] = tested on: third stage larvae of Haemonchus contortus; test: Haemonchus contortus L3 (HcL3) Assay; conditions: 96 h, read-out: HcL3 Minimum Effective Dose (MED)

## CC(C)C[C@H]1C(=O)O[C@H](Cc2ccc(Cn3nccc3C3CCC3)cc2)C(=O)N(C)[C@@H](CC(C)C)C(=O)O[C@H](C)C(=O)N(C)[C@@H](CC(C)C)C(=O)O[C@H](Cc2ccc(Cn3nccc3C3CCC3)cc2)C(=O)N(C)[C@@H](CC(C)C)C(=O)O[C@H](C)C(=O)N1C [Example 1b-129, (3S,6R,9S,12R,15S,18R,21S,24R)-6,18-bis(4-((5-cyclobutyl-1H-pyrazol-1-yl)methyl)benzyl)-3,9,15,21-tetraisobutyl-4,10,12,16,22,24-hexamethyl-1,7,13,19-tetraoxa-4,10,16,22-tetraazacyclotetracosan-2,5,8,11,14,17,20,23-octaone]
[1]
  minimal effective concentration: 0.01 to 0.1 µM
[2]
  minimal effective concentration: 0.0001 to 0.001 µM
[3]
  minimal effective concentration: 1 to 10 µM

## CC(C)C[C@H]1C(=O)O[C@H](Cc2ccc(Cn3ccc(N)n3)cc2)C(=O)N(C)[C@@H](CC(C)C)C(=O)O[C@H](C)C(=O)N(C)[C@@H](CC(C)C)C(=O)O[C@H](Cc2ccc(Cn3ccc(N)n3)cc2)C(=O)N(C)[C@@H](CC(C)C)C(=O)O[C@H](C)C(=O)N1C [Example 1b-143, (3S,6R,9S,12R,15S,18R,21S,24R)-6,18-bis(4-((3-amino-1H-pyrazol-1-yl)methyl)benzyl)-3,9,15,21-tetraisobutyl-4,10,12,16,22,24-hexamethyl-1,7,13,19-tetraoxa-4,10,16,22-tetraazacyclotetracosan-2,5,8,11,14,17,20,23-octaone]
[1]
  minimal effective concentration: 0.001 to 0.01 µM
[2]
  minimal effective concentration: 0.001 to 0.01 µM
[3]
  minimal effective concentration: 1 to 10 µM

## CC(C)C[C@H]1C(=O)O[C@H](Cc2ccc(Cn3ccc(OC(C)C)n3)cc2)C(=O)N(C)[C@@H](CC(C)C)C(=O)O[C@H](C)C(=O)N(C)[C@@H](CC(C)C)C(=O)O[C@H](Cc2ccc(Cn3ccc(OC(C)C)n3)cc2)C(=O)N(C)[C@@H](CC(C)C)C(=O)O[C@H](C)C(=O)N1C [Example 1b-151, (3S,6R,9S,12R,15S,18R,21S,24R)-3,9,15,21-tetraisobutyl-6,18-bis(4-((3-isopropoxy-1H-pyrazol-1-yl)methyl)benzyl)-4,10,12,16,22,24-hexamethyl-1,7,13,19-tetraoxa-4,10,16,22-tetraazacyclotetracosan-2,5,8,11,14,17,20,23-octaone]
[1]
  minimal effective concentration: 0.001 to 0.01 µM
[2]
  minimal effective concentration: 0.0001 to 0.001 µM
[3]
  minimal effective concentration: ≤ 1 µM

## CCc1ccnn1Cc1ccc(C[C@H]2OC(=O)[C@H](CC(C)C)N(C)C(=O)[C@@H](C)OC(=O)[C@H](CC(C)C)N(C)C(=O)[C@@H](Cc3ccc(Cn4nccc4CC)cc3)OC(=O)[C@H](CC(C)C)N(C)C(=O)[C@@H](C)OC(=O)[C@H](CC(C)C)N(C)C2=O)cc1 [Example 1b-165, (3S,6R,9S,12R,15S,18R,21S,24R)-6,18-bis(4-((5-ethyl-1H-pyrazol-1-yl)methyl)benzyl)-3,9,15,21-tetraisobutyl-4,10,12,16,22,24-hexamethyl-1,7,13,19-tetraoxa-4,10,16,22-tetraazacyclotetracosan-2,5,8,11,14,17,20,23-octaone]
[1]
  minimal effective concentration: 0.001 to 0.01 µM
[2]
  minimal effective concentration: 0.0001 to 0.001 µM
[3]
  minimal effective concentration: ≤ 1 µM

## CCc1cc(C)n(Cc2ccc(C[C@H]3OC(=O)[C@H](CC(C)C)N(C)C(=O)[C@@H](C)OC(=O)[C@H](CC(C)C)N(C)C(=O)[C@@H](Cc4ccc(Cn5nc(C)cc5CC)cc4)OC(=O)[C@H](CC(C)C)N(C)C(=O)[C@@H](C)OC(=O)[C@H](CC(C)C)N(C)C3=O)cc2)n1 [Example 1b-186, (3S,6R,9S,12R,15S,18R,21S,24R)-6-(4-((5-ethyl-3-methyl-1H-pyrazol-1-yl)methyl)benzyl)-18-(4-((3-ethyl-5-methyl-1H-pyrazol-1-yl)methyl)benzyl)-3,9,15,21-tetraisobutyl-4,10,12,16,22,24-hexamethyl-1,7,13,19-tetraoxa-4,10,16,22-tetraazacyclotetracosan-2,5,8,11,14,17,20,23-octaone]
[1]
  minimal effective concentration: 0.01 to 0.1 µM
[2]
  minimal effective concentration: 0.0001 to 0.001 µM
[3]
  minimal effective concentration: 1 to 10 µM

## CCc1cc(C)nn1Cc1ccc(C[C@H]2OC(=O)[C@H](CC(C)C)N(C)C(=O)[C@@H](C)OC(=O)[C@H](CC(C)C)N(C)C(=O)[C@@H](Cc3ccc(Cn4nc(C)cc4CC)cc3)OC(=O)[C@H](CC(C)C)N(C)C(=O)[C@@H](C)OC(=O)[C@H](CC(C)C)N(C)C2=O)cc1 [Example 1b-187, (3S,6R,9S,12R,15S,18R,21S,24R)-6,18-bis(4-((5-ethyl-3-methyl-1H-pyrazol-1-yl)methyl)benzyl)-3,9,15,21-tetraisobutyl-4,10,12,16,22,24-hexamethyl-1,7,13,19-tetraoxa-4,10,16,22-tetraazacyclotetracosan-2,5,8,11,14,17,20,23-octaone]
[1]
  minimal effective concentration: 0.01 to 0.1 µM
[2]
  minimal effective concentration: 0.001 to 0.01 µM
[3]
  minimal effective concentration: 1 to 10 µM

## COc1ccc(-c2ccnn2Cc2ccc(C[C@H]3OC(=O)[C@H](CC(C)C)N(C)C(=O)[C@@H](C)OC(=O)[C@H](CC(C)C)N(C)C(=O)[C@@H](Cc4ccc(Cn5nccc5-c5ccc(OC)nc5)cc4)OC(=O)[C@H](CC(C)C)N(C)C(=O)[C@@H](C)OC(=O)[C@H](CC(C)C)N(C)C3=O)cc2)cn1 [Example 1b-190, (3S,6R,9S,12R,15S,18R,21S,24R)-3,9,15,21-tetraisobutyl-6,18-bis(4-((5-(6-methoxypyridin-3-yl)-1H-pyrazol-1-yl)methyl)benzyl)-4,10,12,16,22,24-hexamethyl-1,7,13,19-tetraoxa-4,10,16,22-tetraazacyclotetracosan-2,5,8,11,14,17,20,23-octaone]
[1]
  minimal effective concentration: 0.001 to 0.01 µM
[2]
  minimal effective concentration: 0.0001 to 0.001 µM
[3]
  minimal effective concentration: 1 to 10 µM

## CCOc1cnn(Cc2ccc(C[C@H]3OC(=O)[C@H](CC(C)C)N(C)C(=O)[C@@H](C)OC(=O)[C@H](CC(C)C)N(C)C(=O)[C@@H](Cc4ccc(Cn5ncc(OCC)c5C)cc4)OC(=O)[C@H](CC(C)C)N(C)C(=O)[C@@H](C)OC(=O)[C@H](CC(C)C)N(C)C3=O)cc2)c1C [Example 1b-197, (3S,6R,9S,12R,15S,18R,21S,24R)-6,18-bis[[4-[(4-ethoxy-5-methyl-pyrazol-1-yl)methyl]phenyl]methyl]-3,9,15,21-tetraisobutyl-4,10,12,16,22,24-hexamethyl-1,7,13,19-tetraoxa-4,10,16,22-tetrazacyclotetracosane-2,5,8,11,14,17,20,23-octaone]
[1]
  minimal effective concentration: 0.001 to 0.01 µM
[2]
  minimal effective concentration: 0.001 to 0.01 µM
[3]
  minimal effective concentration: 1 to 10 µM

## COCOc1cnn(Cc2ccc(C[C@H]3OC(=O)[C@H](CC(C)C)N(C)C(=O)[C@@H](C)OC(=O)[C@H](CC(C)C)N(C)C(=O)[C@@H](Cc4ccc(Cn5cc(OCOC)cn5)cc4)OC(=O)[C@H](CC(C)C)N(C)C(=O)[C@@H](C)OC(=O)[C@H](CC(C)C)N(C)C3=O)cc2)c1 [Example 1b-201, (3S,6R,9S,12R,15S,18R,21S,24R)-3,9,15,21-tetraisobutyl-6,18-bis[[4-[[4-(methoxymethoxy)pyrazol-1-yl]methyl]phenyl]methyl]-4, 10,12,16,22,24-hexamethyl-1,7,13,19-tetraoxa-4,10,16,22-tetrazacyclotetracosane-2,5,8,11,14,17,20,23-octaone]
[1]
  minimal effective concentration: 0.001 to 0.01 µM
[2]
  minimal effective concentration: 0.001 to 0.01 µM
[3]
  minimal effective concentration: 1 to 10 µM

## COCCOc1cnn(Cc2ccc(C[C@H]3OC(=O)[C@H](CC(C)C)N(C)C(=O)[C@@H](C)OC(=O)[C@H](CC(C)C)N(C)C(=O)[C@@H](Cc4ccc(Cn5cc(OCCOC)cn5)cc4)OC(=O)[C@H](CC(C)C)N(C)C(=O)[C@@H](C)OC(=O)[C@H](CC(C)C)N(C)C3=O)cc2)c1 [Example 1b-203, (3S,6R,9S,12R,15S,18R,21S,24R)-3,9,15,21-tetraisobutyl-6,18-bis[[4-[[4-(2-methoxyethoxy)pyrazol-1-yl]methyl]phenyl]methyl]-4,10,12,16,22,24-hexamethyl-1,7,13,19-tetraoxa-4,10,16,22-tetrazacyclotetracosane-2,5,8,11,14,17,20,23-octaone]
[1]
  minimal effective concentration: 0.001 to 0.01 µM
[2]
  minimal effective concentration: 0.001 to 0.01 µM
[3]
  minimal effective concentration: 10 to 100 µM

## CC(C)C[C@H]1C(=O)O[C@H](Cc2ccc(Cn3nccc3CC3CC3)cc2)C(=O)N(C)[C@@H](CC(C)C)C(=O)O[C@H](C)C(=O)N(C)[C@@H](CC(C)C)C(=O)O[C@H](Cc2ccc(Cn3nccc3CC3CC3)cc2)C(=O)N(C)[C@@H](CC(C)C)C(=O)O[C@H](C)C(=O)N1C [Example 1b-206, (3S,6R,9S,12R,15S,18R,21S,24R)-6,18-bis(4-((5-(cyclopropylmethyl)-1H-pyrazol-1-yl)methyl)benzyl)-3,9,15,21-tetraisobutyl-4,10,12,16,22,24-hexamethyl-1,7,13,19-tetraoxa-4,10,16,22-tetraazacyclotetracosan-2,5,8,11,14,17,20,23-octaone]
[1]
  minimal effective concentration: 0.01 to 0.1 µM
[2]
  minimal effective concentration: 0.0001 to 0.001 µM
[3]
  minimal effective concentration: ≤ 1 µM

## Cc1ncc(-c2ccnn2Cc2ccc(C[C@H]3OC(=O)[C@H](CC(C)C)N(C)C(=O)[C@@H](C)OC(=O)[C@H](CC(C)C)N(C)C(=O)[C@@H](Cc4ccc(Cn5nccc5-c5cnc(C)nc5)cc4)OC(=O)[C@H](CC(C)C)N(C)C(=O)[C@@H](C)OC(=O)[C@H](CC(C)C)N(C)C3=O)cc2)cn1 [Example 1b-207, (3S,6R,9S,12R,15S,18R,21S,24R)-3,9,15,21-tetraisobutyl-4,6,10,16,18,22-hexamethyl-12,24-bis(4-((5-(2-methylpyrimidin-5-yl)-1H-pyrazol-1-yl)methyl)benzyl)-1,7,13,19-tetraoxa-4,10,16,22-tetraazacyclotetracosan-2,5,8,11,14,17,20,23-octaone]
[1]
  minimal effective concentration: 0.001 to 0.01 µM
[2]
  minimal effective concentration: 0.001 to 0.01 µM
[3]
  minimal effective concentration: 1 to 10 µM
